These are literature values, as cited in patent US20020169561A1, “Modular computational models for predicting the pharmaceutical properties of chemical compunds” (priority 2001, published 2002).

pKd: −log10 of the molar value. Where two headings read alike, the source gives them in different places.

One data set concerns the target T1, renin (Homo sapiens, UniProt P00797).
T1 sequence (P00797 67-406): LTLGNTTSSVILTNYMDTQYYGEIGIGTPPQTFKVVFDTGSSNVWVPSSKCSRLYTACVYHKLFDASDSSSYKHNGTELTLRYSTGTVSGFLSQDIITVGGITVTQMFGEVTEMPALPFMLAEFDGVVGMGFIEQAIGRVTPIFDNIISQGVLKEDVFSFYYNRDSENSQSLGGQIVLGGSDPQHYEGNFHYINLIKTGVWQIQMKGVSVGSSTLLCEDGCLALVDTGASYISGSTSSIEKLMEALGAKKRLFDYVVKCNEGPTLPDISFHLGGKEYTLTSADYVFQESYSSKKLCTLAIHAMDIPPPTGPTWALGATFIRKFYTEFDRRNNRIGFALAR
More on the design: −ΔS: unit not given here. The conditions noted are these: for −ΔH: enthalpy of binding to renin; for −ΔS: entropy of binding to renin; for −ΔG: free energy of binding to renin; for pKd: renin inhibitors.

The conditions of data set [1]: in vivo drug absorption, compiled by search of the literature.
Where [2] appears, read: Caco-2 permeability coefficient, Table 3.
Where [3] appears, read: observed, training set, Table 7.

For “Ac-pro-phe-his-leu-Y[CH(OH)CH2]val-ile-NH2 [Compound U77646E]”, at renin, the “−ΔH” value is 28.75 kcal/mol, the “−ΔS” value is on record as 131.1, the “−ΔG” value was 11.5 kcal/mol and the negative logarithm of the Kd (pKd) is 8.27.
Consider `CN(C)CCCN1c2ccccc2Sc2ccc(Cl)cc21` [Chlorpromazine], for which the “Permeability × 10^6 (cm/sec)” value with Caco-2 cell monolayer (setting [2]) is listed as 19.90 × 10^6 (cm/sec). Moreover, the “Obs. Pcaco-2x10^6” value in the data set with Caco-2 cell monolayer (setting [3]) is 19.9 x10^6. Besides, the “% Absorbed” value in data set [1] is 90%.
As for `NCCc1ccc(O)c(O)c1` [Dopamine], the “Permeability × 10^6 (cm/sec)” value with Caco-2 cell monolayer (setting [2]) is 9.33 × 10^6 (cm/sec). Besides, the “Obs. Pcaco-2x10^6” value with Caco-2 cell monolayer (setting [3]) is reported as 9.33 x10^6.
In the case of “Ac-D-pro-phe-his-leu-Y[CH(OH)CH2]val-ile-NH2 [Compound U77647E]”, at renin, the “−ΔH” value is 20.33 kcal/mol, the “−ΔS” value is listed as 105.5, the “−ΔG” value is 12.4 kcal/mol and the pKd is 8.89.
For “Ac-phe-his-phe-Y[CH2NH]phe-NH2 [Compound U73777E]”, at renin, the “−ΔH” value was 14.20 kcal/mol, the “−ΔS” value was 76.3, the “−ΔG” value was 9.4 kcal/mol and the pKd is 6.66.
As for “Ac-pro-phe-his-sta-ile-NH2 [Compound U72408E]”, at renin, the “−ΔH” value was 14.69 kcal/mol, the “−ΔS” value was 79.6, the “−ΔG” value is 9.9 kcal/mol and the negative logarithm of the Kd (pKd) is 7.01.
`CC(C)(C)NC[C@H](O)COc1nsnc1N1CCOCC1` [Timolol]: in the data set on Caco-2 cell monolayer (setting [2]), the “Permeability × 10^6 (cm/sec)” value is reported as 12.80 × 10^6 (cm/sec). The “Obs. Pcaco-2x10^6” value with Caco-2 cell monolayer (setting [3]) is given as 12.8 x10^6. For the same compound, the “% Absorbed” value in data set [1] is listed as 72%.
As for `OC[C@@H](O)[C@@H](O)[C@H](O)[C@H](O)CO` [Mannitol], in the data set on Caco-2 cell monolayer (setting [2]), the “Permeability × 10^6 (cm/sec)” value is 0.38 × 10^6 (cm/sec). In addition, the “% Absorbed” value in data set [1] was 16%.
Turning to `CC(CCc1ccccc1)NCC(O)c1ccc(O)c(C(N)=O)c1` (stereo not shown) [Labetalol], the “% Absorbed” value in data set [1] is reported as 90%.
Regarding `Cc1cn([C@H]2C[C@H](N=[N+]=[N-])[C@@H](CO)O2)c(=O)[nH]c1=O` [Zidovudine], the “Permeability × 10^6 (cm/sec)” value with Caco-2 cell monolayer (setting [2]) was 6.93 × 10^6 (cm/sec). The “% Absorbed” value in data set [1] is recorded as 100%.
For the compound `CC(=O)CC(c1ccccc1)c1c(O)c2ccccc2oc1=O` (stereo not shown) [Warfarin], the “Permeability × 10^6 (cm/sec)” value in the data set with Caco-2 cell monolayer (setting [2]) is listed as 21.10 × 10^6 (cm/sec).
“Iva-his-pro-phe-his-sta-ile-phe-NH2 [Compound U77455E]”: at renin, the “−ΔH” value is 21.36 kcal/mol, the “−ΔS” value is on record as 108.9, the “−ΔG” value was 12.4 kcal/mol and the negative logarithm of the Kd (pKd) is 8.77.
Consider `CC(C)(C)NCC(O)COc1cccc2c1CC(O)C(O)C2` (stereo not shown) [Nadolol], for which, in the data set with Caco-2 cell monolayer (setting [2]), the “Permeability × 10^6 (cm/sec)” value is recorded as 3.88 × 10^6 (cm/sec). In addition, the “Obs. Pcaco-2x10^6” value with Caco-2 cell monolayer (setting [3]) is on record as 3.88 x10^6.
For `CN1C(=O)CN=C(c2ccccc2)c2cc(Cl)ccc21` [Diazepam], in data set [1], the “% Absorbed” value was 100%.
Take `O=C(O)c1ccccc1O` [Salicylic acid]: in the data set with Caco-2 cell monolayer (setting [2]), the “Permeability × 10^6 (cm/sec)” value is recorded as 22.00 × 10^6 (cm/sec). In the data set on Caco-2 cell monolayer (setting [3]), the “Obs. Pcaco-2x10^6” value was 22 x10^6.
Regarding `O=C1NC(=O)C(c2ccccc2)(c2ccccc2)N1` [Phenytoin], the “Permeability × 10^6 (cm/sec)” value in the data set with Caco-2 cell monolayer (setting [2]) is on record as 26.70 × 10^6 (cm/sec). The “Obs. Pcaco-2x10^6” value in the data set with Caco-2 cell monolayer (setting [3]) is 26.7 x10^6. In data set [1], the “% Absorbed” value is on record as 90%.
With `CC(C)(C)NCC(O)c1cc(O)cc(O)c1` (stereo not shown) [Terbutaline], the “Permeability × 10^6 (cm/sec)” value in the data set on Caco-2 cell monolayer (setting [2]) is 0.47 × 10^6 (cm/sec). Also, the “Obs. Pcaco-2x10^6” value in the data set on Caco-2 cell monolayer (setting [3]) is listed as 0.47 x10^6. For the same compound, in data set [1], the “% Absorbed” value was 73%.
On to `Nc1nc2c(ncn2COCCO)c(=O)[nH]1` [Acyclovir], for which the “Permeability × 10^6 (cm/sec)” value in the data set with Caco-2 cell monolayer (setting [2]) is 0.25 × 10^6 (cm/sec). Moreover, the “Obs. Pcaco-2x10^6” value in the data set on Caco-2 cell monolayer (setting [3]) is 0.25 x10^6.
Take `C=CCc1ccccc1OCC(O)CNC(C)C` (stereo not shown) [Alprenolol]: in the data set with Caco-2 cell monolayer (setting [2]), the “Permeability × 10^6 (cm/sec)” value was 25.30 × 10^6 (cm/sec). Further, the “Obs. Pcaco-2x10^6” value in the data set with Caco-2 cell monolayer (setting [3]) is listed as 25.3 x10^6. The “% Absorbed” value in data set [1] is listed as 93%.
As for `Nc1nc(O)c2ncn(COC(CO)CO)c2n1` [Ganciclovir], the “% Absorbed” value in data set [1] is reported as 3%.
As to `C[C@]12C[C@H](O)[C@H]3[C@@H](CCC4=CC(=O)CC[C@@]43C)[C@@H]1CC[C@@H]2C(=O)CO` [Corticosterone], the “Obs. Pcaco-2x10^6” value with Caco-2 cell monolayer (setting [3]) is on record as 21.2 x10^6. Further, the “% Absorbed” value in data set [1] is recorded as 100%.
Consider `NC(N)=O` [Urea], for which the “Permeability × 10^6 (cm/sec)” value in the data set on Caco-2 cell monolayer (setting [2]) is given as 4.56 × 10^6 (cm/sec).
In the case of `Clc1cccc(Cl)c1N=C1NCCN1` [Clonidine], the “Permeability × 10^6 (cm/sec)” value in the data set with Caco-2 cell monolayer (setting [2]) is reported as 21.80 × 10^6 (cm/sec). In addition, the “Obs. Pcaco-2x10^6” value in the data set on Caco-2 cell monolayer (setting [3]) is given as 21.8 x10^6. The “% Absorbed” value in data set [1] is 100%.
For “Ac-phe-his-sta-ile-NH2 [Compound U72407E]”, on renin, the “−ΔH” value was 26.10 kcal/mol, the “−ΔS” value is given as 114.8, the “−ΔG” value was 9.5 kcal/mol and the pKd is 6.69.
For the compound `Cc1c(N(C)C)c(=O)n(-c2ccccc2)n1C` [Aminopyrine], the “Permeability × 10^6 (cm/sec)” value in the data set on Caco-2 cell monolayer (setting [2]) is 36.5 × 10^6 (cm/sec).
With `CN1CCCC1c1cccnc1` (stereo not shown) [Nicotine], in the data set on Caco-2 cell monolayer (Caco-2), the “Obs. Pcaco-2x10^6” value is listed as 19.4 x10^6 and the “Permeability × 10^6 (cm/sec)” value is reported as 19.40 × 10^6 (cm/sec). Further, the “% Absorbed” value in data set [1] was 100%.
For “Ac-phe-his-leu-y[CH(OH)CH2]val-ile-NH2 [Compound U80631E]”, at renin, the “−ΔH” value was 14.28 kcal/mol, the “−ΔS” value is recorded as 75.7, the “−ΔG” value was 9.2 kcal/mol and the pKd was 6.43.
In the case of `CCC12CCN(CC3(O)CC3)C(Cc3ccc(O)cc31)C2(C)C` (stereo not shown) [Bremazocine], the “Permeability × 10^6 (cm/sec)” value in the data set on Caco-2 cell monolayer (Caco-2) is recorded as 8.02 × 10^6 (cm/sec). The “Obs. Pcaco-2x10^6” value with Caco-2 cell monolayer (setting [3]) was 8.02 x10^6.
For the compound `CC(=O)[C@H]1CC[C@H]2[C@@H]3CCC4=CC(=O)CC[C@]4(C)[C@H]3CC[C@]12C` [Progesterone], in the data set on Caco-2 cell monolayer (setting [2]), the “Permeability × 10^6 (cm/sec)” value is 23.70 × 10^6 (cm/sec). The “Obs. Pcaco-2x10^6” value with Caco-2 cell monolayer (setting [3]) is 23.7 x10^6.
With `CNCCCN1c2ccccc2CCc2ccccc21` [Desipramine], in the data set on Caco-2 cell monolayer (setting [2]), the “Permeability × 10^6 (cm/sec)” value is 24.20 × 10^6 (cm/sec). In the data set on Caco-2 cell monolayer (setting [3]), the “Obs. Pcaco-2x10^6” value is 24.2 x10^6. Further, the “% Absorbed” value in data set [1] is on record as 95%.
In the case of `CC(C)NCC(O)COc1cccc2[nH]ccc12` (stereo not shown) [Pindolol], in the data set with Caco-2 cell monolayer (setting [2]), the “Permeability × 10^6 (cm/sec)” value was 16.70 × 10^6 (cm/sec). The “Obs. Pcaco-2x10^6” value in the data set with Caco-2 cell monolayer (setting [3]) was 16.7 x10^6. Also, the “% Absorbed” value in data set [1] is given as 95%.
On to `COCCc1ccc(OCC(O)CNC(C)C)cc1` (stereo not shown) [Metoprolol], for which the “Permeability × 10^6 (cm/sec)” value in the data set with Caco-2 cell monolayer (setting [2]) is reported as 23.70 × 10^6 (cm/sec). For the same compound, in the data set on Caco-2 cell monolayer (setting [3]), the “Obs. Pcaco-2x10^6” value is reported as 23.7 x10^6.
Regarding `O=C(O)c1cc(/N=N/c2ccc(S(=O)(=O)Nc3ccccn3)cc2)ccc1O` [Sulfasalazine], in the data set with Caco-2 cell monolayer (setting [2]), the “Permeability × 10^6 (cm/sec)” value is 0.30 × 10^6 (cm/sec). The “Obs. Pcaco-2x10^6” value with Caco-2 cell monolayer (setting [3]) was 0.3 x10^6.
For the compound “Ac-pro-phe-his-phe-Y[CH2NH]phe-NH2 [Compound U71909E]”, at renin, the “−ΔH” value is 13.70 kcal/mol, the “−ΔS” value is on record as 78.4, the “−ΔG” value is 10.6 kcal/mol and the pKd was 7.54.
As for `CC(C)NCC(O)COc1cccc2ccccc12` (stereo not shown) [Propranolol], the “Permeability × 10^6 (cm/sec)” value with Caco-2 cell monolayer (setting [2]) was 21.80 × 10^6 (cm/sec).
As to `COc1ccc2c(c1)c(CC(=O)O)c(C)n2C(=O)c1ccc(Cl)cc1` [Indomethacin], the “Permeability × 10^6 (cm/sec)” value in the data set on Caco-2 cell monolayer (setting [2]) is 20.40 × 10^6 (cm/sec). Moreover, the “Obs. Pcaco-2x10^6” value in the data set with Caco-2 cell monolayer (setting [3]) is listed as 20.4 x10^6.
For “Ac-his-pro-phe-his-sta-ile-NH2 [Compound U72409E]”, at renin, the “−ΔH” value is 22.63 kcal/mol, the “−ΔS” value is 108.0, the “−ΔG” value was 10.8 kcal/mol and the pKd is 7.64.
Consider `c1ccc(C2(N3CCCCC3)CCCCC2)cc1` [Phencyclidine], for which, in the data set with Caco-2 cell monolayer (Caco-2), the “Obs. Pcaco-2x10^6” value was 24.7 x10^6 and the “Permeability × 10^6 (cm/sec)” value was 24.70 × 10^6 (cm/sec).
For the compound `C[C@]12CC[C@H]3[C@@H](CCC4=CC(=O)CC[C@@]43C)[C@@H]1CC[C@@H]2O` [Testosterone], the “Obs. Pcaco-2x10^6” value in the data set on Caco-2 cell monolayer (Caco-2) is given as 24.9 x10^6. Also, in data set [1], the “% Absorbed” value is on record as 100%.
Take “Ac-pro-phe-his-phe-Y[CH2NH]phe-Mba [Compound U77451E]”: at renin, the “−ΔH” value was 26.70 kcal/mol, the “−ΔS” value was 125.3, the “−ΔG” value was 12.2 kcal/mol and the pKd was 8.60.
For the compound `C[C@@H]1C[C@H]2[C@@H]3CCC4=CC(=O)C=C[C@]4(C)[C@@]3(F)[C@@H](O)C[C@]2(C)[C@@]1(O)C(=O)CO` [Dexamethasone], the “% Absorbed” value in data set [1] was 100%.
